{"source": "patent US20130143929A1", "about": "“FUNGICIDAL IMIDAZOLES” (EI DU PONT DE NEMOURS AND COMPANY, priority 2010, published 2013)", "format_in_all_cases": "in vivo", "key": {"[1]": {"test_system": "Puccinia recondite f. sp. tritici (the causal agent of wheat leaf rust)", "assay": "Test A: wheat leaf rust, preventive spray on wheat seedlings, visual disease rating", "conditions": "for Test A rating (100 = 100% disease control, 0 = no disease control relative to the controls): wheat leaf rust, preventive spray on wheat seedlings; for Test A rating (% disease control, wheat leaf rust): 100 = 100% disease control", "outline": "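This was a preventive test: Puccinia recondite f. sp. tritici inoculum was applied one day after compound spray to run-off. Test suspensions were made in 50/50 acetone/water with 250 ppm surfactant, at 200 ppm (800 g/ha equivalent) or 40 ppm. Visual ratings of % disease control relative to controls were made after 24 h of saturated humidity and 7 growth-chamber days, all at 20° C.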"}, "[2]": {"test_system": "Botrytis cinerea (the causal agent of tomato Botrytis)", "assay": "Test C: tomato Botrytis, preventive spray on tomato seedlings, visual disease rating", "conditions": "for Test C rating (100 = 100% disease control, 0 = no disease control relative to the controls): tomato Botrytis, preventive spray on tomato seedlings; for Test C rating (% disease control, tomato Botrytis): 100 = 100% disease control", "outline": "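Preventive test: B. cinerea spore inoculation one day after tomato seedlings were sprayed to run-off with compound suspended in 50/50 acetone–water plus 250 ppm surfactant. Plants held 48 h at 20° C in saturated air, then 3 days at 24° C; visual ratings scored 100 (full control) to 0 versus controls; some entries used 40 ppm.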"}, "[3]": {"test_system": "Blumeria graminis f. sp. tritici (also known as Erysiphe graminis f. sp. tritici, the causal agent of wheat powdery mildew)", "assay": "Test D: wheat powdery mildew, preventive spray on wheat seedlings, visual disease rating", "conditions": "for Test D rating (100 = 100% disease control, 0 = no disease control relative to the controls): wheat powdery mildew, preventive spray on wheat seedlings; for Test D rating (% disease control, wheat powdery mildew): no asterisk: standard test suspension concentration, 100 = 100% disease control, 0 = no control relative to controls", "outline": "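Preventive test: seedlings sprayed to run-off and inoculated with powdery mildew spores one day later. Suspensions were made in 50/50 acetone/water with 250 ppm Trem 014 surfactant (200 ppm equals 800 g/ha). Visual ratings after 8 days at 20 °C give percent disease control versus controls.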"}, "[4]": {"test_system": "Septoria tritici (the causal agent of wheat leaf blotch)", "assay": "Test B: wheat leaf blotch, preventive spray on wheat seedlings, visual disease rating", "conditions": "for Test B rating (100 = 100% disease control, 0 = no disease control relative to the controls): wheat leaf blotch, preventive spray on wheat seedlings; for Test B rating (% disease control, wheat leaf blotch): 100 = 100% disease control", "outline": "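Preventive test: Septoria tritici spores applied one day after run-off spraying of seedlings (200 ppm equals 800 g/ha; some tests 40 ppm). After 48 h at 24 °C saturated atmosphere and 19 days at 20 °C, disease scored visually as % control relative to untreated plants.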"}, "[5]": {"conditions": "asterisk: 40 ppm test suspension"}, "[6]": {"conditions": "no asterisk (standard test suspension concentration, not 40 ppm)"}, "[7]": {"conditions": "no asterisk: standard test suspension concentration, 0 = no control relative to controls"}, "[8]": {"conditions": "asterisk: 40 ppm test suspension, 0 = no control"}}, "note": "Marks after values point to notes of the source that are not given here.", "data": [{"smiles": "Cc1nc(Cl)c(C(O)c2ccc(Cl)cc2Cl)n1-c1c(F)cc(F)cc1Cl", "note": "(centres unmarked) [compound 66]", "values": [{"measurement": "Test A rating (100 = 100% disease control, 0 = no disease control relative to the controls)", "setting": "[1]; [5]", "value": "100* %"}, {"measurement": "Test C rating (100 = 100% disease control, 0 = no disease control relative to the controls)", "setting": "[2]; [5]", "value": "99* %"}, {"measurement": "Test D rating (100 = 100% disease control, 0 = no disease control relative to the controls)", "setting": "[3]; [5]", "value": "69* %"}, {"measurement": "Test B rating (100 = 100% disease control, 0 = no disease control relative to the controls)", "setting": "[4]; [5]", "value": "100* %"}]}, {"smiles": "Cc1nc(Cl)c(C(O)c2ccc(F)cc2F)n1-c1c(F)cc(F)cc1Br", "note": "(centres unmarked) [compound 92]", "values": [{"measurement": "Test A rating (100 = 100% disease control, 0 = no disease control relative to the controls)", "setting": "[1]; [6]", "value": 100, "unit": "%"}, {"measurement": "Test C rating (100 = 100% disease control, 0 = no disease control relative to the controls)", "setting": "[2]; [6]", "value": 99, "unit": "%"}, {"measurement": "Test D rating (100 = 100% disease control, 0 = no disease control relative to the controls)", "setting": "[3]; [6]", "value": 95, "unit": "%"}, {"measurement": "Test B rating (100 = 100% disease control, 0 = no disease control relative to the controls)", "setting": "[4]; [6]", "value": 100, "unit": "%"}]}, {"smiles": "Cc1nc(Br)c(C(O)c2ccc(F)cc2F)n1-c1c(F)cccc1Br", "note": "(centres unmarked) [compound 393]", "values": [{"measurement": "Test A rating (% disease control, wheat leaf rust)", "setting": "[1]; [7]", "value": 100, "unit": "%"}, {"measurement": "Test C rating (% disease control, tomato Botrytis)", "setting": "[2]; [7]", "value": 100, "unit": "%"}, {"measurement": "Test D rating (% disease control, wheat powdery mildew)", "setting": "[3]", "value": 97, "unit": "%"}, {"measurement": "Test B rating (% disease control, wheat leaf blotch)", "setting": "[4]; [7]", "value": 100, "unit": "%"}]}, {"smiles": "OC(c1ccc(F)cc1Cl)c1c(Cl)ncn1-c1c(F)cccc1F", "note": "(stereo not drawn) [Compound 1, 4-chloro-α-(2-chloro-4-fluorophenyl)-1-(2,6-difluorophenyl)-1H-imidazole-5-methanol]", "values": [{"measurement": "Test A rating (100 = 100% disease control, 0 = no disease control relative to the controls)", "setting": "[1]; [6]", "value": 100, "unit": "%"}, {"measurement": "Test C rating (100 = 100% disease control, 0 = no disease control relative to the controls)", "setting": "[2]; [6]", "value": 99, "unit": "%"}, {"measurement": "Test D rating (100 = 100% disease control, 0 = no disease control relative to the controls)", "setting": "[3]; [6]", "value": 99, "unit": "%"}, {"measurement": "Test B rating (100 = 100% disease control, 0 = no disease control relative to the controls)", "setting": "[4]; [6]", "value": 100, "unit": "%"}]}, {"smiles": "COc1ccc(C(O)c2c(Cl)nc(Cl)n2-c2ccc(F)cc2F)c(Cl)c1", "note": "(racemic) [compound 236]", "values": [{"measurement": "Test A rating (100 = 100% disease control, 0 = no disease control relative to the controls)", "setting": "[1]; [5]", "value": "100* %"}, {"measurement": "Test C rating (100 = 100% disease control, 0 = no disease control relative to the controls)", "setting": "[2]; [5]", "value": "100* %"}, {"measurement": "Test D rating (100 = 100% disease control, 0 = no disease control relative to the controls)", "setting": "[3]; [5]", "value": "99* %"}, {"measurement": "Test B rating (100 = 100% disease control, 0 = no disease control relative to the controls)", "setting": "[4]; [5]", "value": "100* %"}]}, {"smiles": "Cc1ncc(C(O)c2ccc(F)cc2Cl)n1-c1ccc(F)cc1Br", "note": "(centres unmarked) [compound 189]", "values": [{"measurement": "Test A rating (100 = 100% disease control, 0 = no disease control relative to the controls)", "setting": "[1]; [6]", "value": 100, "unit": "%"}, {"measurement": "Test C rating (100 = 100% disease control, 0 = no disease control relative to the controls)", "setting": "[2]; [6]", "value": 99, "unit": "%"}, {"measurement": "Test D rating (100 = 100% disease control, 0 = no disease control relative to the controls)", "setting": "[3]; [6]", "value": 27, "unit": "%"}, {"measurement": "Test B rating (100 = 100% disease control, 0 = no disease control relative to the controls)", "setting": "[4]; [6]", "value": 100, "unit": "%"}]}, {"smiles": "COc1ccc(C(O)c2c(Br)nc(C)n2-c2ccc(F)cc2F)c(Cl)c1", "note": "(racemic) [compound 285]", "values": [{"measurement": "Test A rating (100 = 100% disease control, 0 = no disease control relative to the controls)", "setting": "[1]; [5]", "value": "99* %"}, {"measurement": "Test C rating (100 = 100% disease control, 0 = no disease control relative to the controls)", "setting": "[2]; [5]", "value": "0* %"}, {"measurement": "Test D rating (100 = 100% disease control, 0 = no disease control relative to the controls)", "setting": "[3]; [5]", "value": "0* %"}, {"measurement": "Test B rating (100 = 100% disease control, 0 = no disease control relative to the controls)", "setting": "[4]; [5]", "value": "88* %"}]}, {"smiles": "Cc1nc(Br)c(C(O)c2ccc(F)cc2Br)n1-c1c(F)cccc1Cl", "note": "(centres unmarked) [compound 387]", "values": [{"measurement": "Test A rating (% disease control, wheat leaf rust)", "setting": "[1]; [8]", "value": "100* %"}, {"measurement": "Test C rating (% disease control, tomato Botrytis)", "setting": "[2]; [8]", "value": "99* %"}, {"measurement": "Test D rating (% disease control, wheat powdery mildew)", "setting": "[3]", "value": 90, "unit": "%"}, {"measurement": "Test B rating (% disease control, wheat leaf blotch)", "setting": "[4]; [8]", "value": "100* %"}]}, {"smiles": "COc1ccc(C(O)c2c(C)nc(Cl)n2-c2c(F)cccc2Cl)c(F)c1", "note": "(centres unmarked) [compound 210]", "values": [{"measurement": "Test A rating (100 = 100% disease control, 0 = no disease control relative to the controls)", "setting": "[1]; [6]", "value": 100, "unit": "%"}, {"measurement": "Test C rating (100 = 100% disease control, 0 = no disease control relative to the controls)", "setting": "[2]; [5]", "value": "100* %"}, {"measurement": "Test D rating (100 = 100% disease control, 0 = no disease control relative to the controls)", "setting": "[3]; [5]", "value": "99* %"}, {"measurement": "Test B rating (100 = 100% disease control, 0 = no disease control relative to the controls)", "setting": "[4]; [5]", "value": "100* %"}]}, {"smiles": "Cc1nc(Cl)n(-c2c(F)cc(F)cc2Cl)c1C(O)c1ccc(F)cc1F", "note": "(racemic) [compound 8]", "values": [{"measurement": "Test A rating (100 = 100% disease control, 0 = no disease control relative to the controls)", "setting": "[1]; [6]", "value": 100, "unit": "%"}, {"measurement": "Test C rating (100 = 100% disease control, 0 = no disease control relative to the controls)", "setting": "[2]; [6]", "value": 100, "unit": "%"}, {"measurement": "Test D rating (100 = 100% disease control, 0 = no disease control relative to the controls)", "setting": "[3]; [6]", "value": 100, "unit": "%"}, {"measurement": "Test B rating (100 = 100% disease control, 0 = no disease control relative to the controls)", "setting": "[4]; [6]", "value": 100, "unit": "%"}]}, {"smiles": "COc1cc(F)ccc1C(O)c1c(Br)nc(C)n1-c1c(F)cccc1F", "note": "(racemic) [compound 281]", "values": [{"measurement": "Test A rating (100 = 100% disease control, 0 = no disease control relative to the controls)", "setting": "[1]; [5]", "value": "92* %"}, {"measurement": "Test C rating (100 = 100% disease control, 0 = no disease control relative to the controls)", "setting": "[2]; [5]", "value": "0* %"}, {"measurement": "Test D rating (100 = 100% disease control, 0 = no disease control relative to the controls)", "setting": "[3]; [5]", "value": "0* %"}, {"measurement": "Test B rating (100 = 100% disease control, 0 = no disease control relative to the controls)", "setting": "[4]; [5]", "value": "0* %"}]}]}
